According to patent EP2873675A1, “Peptide-based peroxidase inhibitors and methods of using same” (The Medical College of Wisconsin, Inc., priority 2013, dated 2015):
Residues, ends and D or L forms follow the SMILES beside them.

Columns and labels:
[1] = tested on: SCD mice; assay: Vasodilatation of pressurized facialis arteries from treated SCD mice; assay type: in vivo; settings: IP 0.3 mg/kg/d for 3 weeks; response to ACh; untreated SCD ∼20%
Description: Murine Model of Sickle Cell Disease. Mice treated with KYC in vivo. SCD mice were treated with KYC (intraperitoneal injection: IP 0.3 mg/kg/d) or with PBS (IP 100 µL) for 3 weeks. Anesthesia was induced with Ketamine (100mg/kg) + Xylazine (10mg/kg) cocktail (ip) and then sacrificed by exsanguination. Facialis arteries were atraumatically dissected and maintained in cooled MOPS solution (in mM: NaCl 145, KCL 4.7, CaCl2 2, NaH2PO4 1.2, MgSO4, 1.2, pyruvate 2, EDTA 0.02, MOPS 3.0, and glucose 5.0, at pH 7.4). Vessels were then submerged in a MOPS bath, mounted on MOPS-containing glass capillary tubes, internally pressurized (60 mmHg), and warmed to 37°C. Internal vascular diameters were measured with a calibrated video-microscope (Boeckeler). After the vessel was allowed to acclimate to 37°C (approximately 30 min), the diameter was measured and recorded (Dmax). […] A control dose-response curve using acetylcholine (ACh, 10^-7 - 10^-4 M) was performed and vessel diameter recorded. […] Vasodilation to papaverine (2.0X10^-4 M) was determined after all treatments to ensure smooth muscle viability. Vasodilation was calculated as a percent of maximal vessel diameter change.
Vasodilatation. […] Physiological responses to increasing concentrations of acetylcholine (ACh) were determined by videomicroscopy as previously described.

[2] = tested on: C57BL/6J mice; assay: Acute lung injury: pulmonary retention of Q-dot labeled EMPs; assay type: in vivo; settings: pretreatment and treatment of EMP-injected mice
Description: KYC Inhibits Acute Lung Injury. Inflammation and sepsis induce the release of endothelial cell microparticles (EMPs). Increased production of EMPs is hypothesized to play a causal role in the mechanisms mediating acute lung injury (ALI). To test this hypothesis, the inventors incubated human umbilical vein endothelial cells with PAI-1, which is well-recognized for inducing endothelial cells to generate EMPs. The EMPs were collected by ultracentrifugation, resuspended in physiological saline solution and then labeled with Q-dots. The Q-dot labeled EMPs were counted and then injected into C57BL/6J mice to achieve a final concentration of 100,000 EMPs/mL of blood. Mice were pretreated with phosphate buffered saline (Fig. 6) or KYC and then were injected with Q-dot labeled EMPs alone or Q-dot labeled EMPs plus KYC (Fig. 6).

[3] = tested on: SCD mice; assay: Immunofluorescence of aortas of SCD mice; assay type: in vivo; settings: IP 0.3 mg/kg/d, three weeks; vs non-treated SCD mice
Description: Immunofluorescence Studies. In a separate study, SCD mice were treated with KYC (IP, 0.3 mg/kg/d). After three weeks treatment, mice were deeply anesthetized and euthanized by exsanguination. Thoracic and abdominal aortas were surgically removed and rinsed free of blood elements using ice cold PBS. Aortas were fixed, imbedded in paraffin, and sectioned.

[4] = tested on: MPO; assay: MPO-mediated LDL Trp oxidation (Trp intrinsic fluorescence); assay type: biochemical; settings: MPO/H2O2/NO2- system, 30 min, room temperature
Description: MPO-mediated LDL Trp Oxidation: Reaction mixtures containing LDL (0.15 mg/mL), NaNO2 (100 µM), H2O2 (100 µM), MPO (20 nM) and increasing concentrations of KYC in a phosphate buffer (100 mM, pH 7.4) containing DTPA (100 µM) were incubated at room temperature for 30 min. Reactions were stopped by addition of catalase (2,000 units/mL) and the oxidation of Trp in LDL was determined by measuring changes in the intrinsic fluorescence of Trp (Ex 294nm/Em 345 nm) using a LC-50 fluorometer (Perkin Elmer, Waltham MA).

[5] = tested on: facialis arteries from non-treated SCD mice; assay: Vasodilatation of facialis arteries from untreated SCD mice, treated ex vivo in the vessel bath; settings: 1.5 µg/ml added to vessel bath, 20 min
Description: For vessels treated with KYC (ex-vivo): Using untreated SCD mice, the vessels were isolated/ cannulated the same as for the mice treated with KYC in vivo. After the control dose-response curve using acetylcholine (ACh, 10^-7 - 10^-4 M) and subsequent washing, the vessels were incubated with KYC 1.5 µg/ml for 20 minutes, pre-constricted, and exposed to acetylcholine (ACh, 10^-7 - 10^-4 M). Vasodilation to papaverine (2.0X10^-4 M) was determined after all treatments to ensure smooth muscle viability. Vasodilation was calculated as a percent of maximal vessel diameter change.

[6] = tested on: MPO; assay: MPO-mediated LDL oxidation (conjugated diene formation, absorbance at 234 nm); assay type: biochemical; settings: for conjugated diene formation in the LDL solution: for more than 2 hours
Description: MPO-mediated oxidation of LDL. Reaction mixtures contained LDL (0.15 mg/ml), NaNO2 (100 µM), H2O2 (300 µM), MPO (20 nM) and various concentrations of KYC in a potassium phosphate buffer (100 mM, pH 7.4) containing DTPA (100 µM). LDL oxidation was monitored at 234 nm at room temperature on a HP UV/VIS spectrometer. Absorbance traces represent the average of duplicate experiments.
MPO-mediated LDL Oxidation. Reaction mixtures contained LDL (0.15 mg/mL), NaNO2 (100 µM), H2O2 (100 µM), MPO (20 nM) and increasing concentrations of KYC in a phosphate buffer (100 mM, pH 7.4) containing DTPA (100 µM). Rates of LDL oxidation were monitored at room temperature at 234 nm, the wavelength maximum for conjugated dienes.
MPO-mediated LDL Conjugated Diene Formation: Reaction mixtures contained LDL (0.15 mg/mL), NaNO2 (100 µM), H2O2 (100 µM), MPO (20 nM) and increasing concentrations of KYC or equimolar concentrations of various compounds in a phosphate buffer (100 mM, pH 7.4) containing DTPA (100 µM). Rates of LDL conjugated diene formation were determined by following changes in absorbance at 234 nm, the wavelength maximum for conjugated dienes, on a UV-Vis spectrophotometer (Agilent Model 8453) at room temperature.

CC(=O)N[C@@H](CCCCN)C(=O)N[C@@H](Cc1ccc(O)cc1)C(=O)N[C@@H](CS)C(N)=O [KYC, N-acetyl Lysyltyrosylcysteine amide] (Ac-Lys-Tyr-Cys-NH2)
vasodilatation, percent of maximal vessel diameter change [1]: ~60%
pulmonary retention of Q-dot labeled EMPs [2]: dramatically decreases pulmonary retention
MPO levels in the aortas [3]: reduced
chlorotyrosine levels in the aortas [3]: reduced
MPO-dependent oxidation of Trp residues in LDL [4]: protected the Trp residues in LDL against MPO-dependent oxidation
vasodilatation in response to ACh [5]: did not increase vasodilatation
lag time of conjugated diene formation ([6]; 4 µM, MPO/H2O2/nitrite, H2O2 300 µM, lag time without peptide 25 min): 90 min
reduction of the rate of LDL oxidation ([6]; 4 µM, at the end of the 2 hour incubation, on the basis of absorbance values): ~80%
conjugated diene formation in the LDL solution ([6]; 20 µM, MPO/H2O2/nitrite, H2O2 300 µM): totally suppresses
MPO/H2O2/nitrite-mediated LDL oxidation ([6]; 25 µM, H2O2 100 µM, NaNO2 100 µM, MPO 20 nM): completely suppressed
conjugated diene formation in the LDL solution ([6]; 100 µM, MPO/H2O2/nitrite, H2O2 300 µM): totally suppresses
